Source: US7442805B2, “Substituted sulfonamide-indoles” (Wyeth, priority 2003, dated 2008)

Assays:
human PAI-1 = human PAI-1 (Homo sapiens, UniProt P05121); test: Assay for determining IC50 of inhibition of PAI-1 (tPA-coated plate, antibody detection of active PAI-1); assay type: binding; settings: active PAI-1 bound to tPA-coated plate; pH 7.5
Protocol: Assay for determining IC50 of Inhibition of PAI-1
This assay is based upon the non-SDS dissociable interaction between tPA and active PAI-1. Assay plates are initially coated with human tPA (10 μg/ml). Test compounds of the present invention are dissolved in DMSO at 10 mM, then diluted with physiologic buffer (pH 7.5) to a final concentration of […]. Test compounds are incubated with human PAI-1 (50 ng/ml) for 15 minutes at room temperature. The tPA-coated plate is washed with a solution of 0.05% Tween 20 and 0.1% BSA, then the plate is blocked with a solution of 3% BSA. An aliquot of the substituted sulfonamide indole/PAI-1 solution is then added to the tPA-coated plate, incubated at room temperature for 1 hour, and washed. Active PAI-1 bound to the plate is assessed by adding an aliquot of a 1:1000 dilution of the 33B8 monoclonal antibody against human PAI-1, and incubating the plate at room temperature for 1 hour (Molecular Innovations, Royal Oak, Mich.). The plate is again washed, and a solution of goat anti-mouse IgG-alkaline phosphatase conjugate is added at a 1:50,000 dilution in goat serum. The plate is incubated 30 minutes at room temperature, washed, and a solution of alkaline phosphatase substrate is added. The plate is incubated 45 minutes at room temperature, and color development is determined at OD405 nm. The quantitation of active PAI-1 bound to tPA at varying concentrations of the test compound is used to determine the IC50. Results are analyzed using a logarithmic best-fit equation. The assay sensitivity is 5 ng/ml of human PAI-1 as determined from a standard curve ranging from 0-100 ng/ml.

[1] = biological target: T1, recombinant human plasminogen activator inhibitor-1 (PAI-1) (Homo sapiens, UniProt P05121); test: Primary screen for the PAI-1 inhibition (chromogenic tPA activity assay); assay type: biochemical; settings: pH 6.6, 140 nM PAI-1, 70 nM tPA; for inhibition at 10 µM: 10 μM test compound; for inhibition at 25 µM: 25 μM test compound
T1 construct: purchased Molecular Innovations, Royal Oak, Mich
T1 sequence (P05121 24-402): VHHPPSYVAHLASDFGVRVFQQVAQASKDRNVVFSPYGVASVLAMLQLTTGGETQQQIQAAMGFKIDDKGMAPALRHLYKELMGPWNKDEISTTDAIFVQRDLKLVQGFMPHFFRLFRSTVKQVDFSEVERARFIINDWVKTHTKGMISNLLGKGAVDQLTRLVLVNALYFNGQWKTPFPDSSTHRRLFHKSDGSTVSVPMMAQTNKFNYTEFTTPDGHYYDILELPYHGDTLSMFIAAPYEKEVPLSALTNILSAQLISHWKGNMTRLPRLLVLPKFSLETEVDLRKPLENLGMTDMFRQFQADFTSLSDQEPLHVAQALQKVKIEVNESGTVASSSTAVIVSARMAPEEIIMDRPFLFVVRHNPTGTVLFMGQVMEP
Protocol: Primary Screen for the PAI-1 Inhibition
Test compounds are dissolved in DMSO at a final concentration of 10 mM, then diluted 100× in physiologic buffer. The inhibitory assay is initiated by the addition of the test compound (1-100 μM final concentration, maximum DMSO concentration of 0.2%) in a pH 6.6 buffer containing 140 nM recombinant human plasminogen activator inhibitor-1 (PAI-1; Molecular Innovations, Royal Oak, Mich.). Following a 1 hour incubation at room temperature, 70 nM of recombinant human tissue plasminogen activator (tPA) is added, and the combination of the test compound, PAI-1 and tPA is incubated for an additional 30 minutes. Following the second incubation, Spectrozyme-tPA (American Diagnostica, Greenwich, Conn.), a chromogenic substrate for tPA, is added and absorbance read at 405 nm at 0 and 60 minutes. Relative PAI-1 inhibition is equal to the residual tPA activity in the presence of the test compound and PAI-1. Control treatments include the complete inhibition of tPA by PAI-1 at the molar ratio employed (2:1), and the absence of any effect of the test compound on tPA alone.

Chain of human PAI-1 (P05121 24-402): as above

O=C(O)c1c(-c2ccccc2)c2cc(NS(=O)(=O)c3ccc(OC(F)(F)F)cc3)ccc2n1Cc1ccccc1 [Example 1, 1-benzyl-3-phenyl-5-({[4-(trifluoromethoxy)phenyl]sulfonyl}amino)-1H-indole-2-carboxylic acid]
IC50 (human PAI-1): 8.3 µM
inhibition at 10 µM [1]: 33%
inhibition at 25 µM [1]: 81%

O=C(O)c1c(-c2ccccc2)c2cc(NS(=O)(=O)c3cccc4cccnc34)ccc2n1Cc1ccccc1 [Example 2, 1-benzyl-3-phenyl-5-[(quinolin-8-ylsulfonyl)amino]-1H-indole-2-carboxylic acid]
inhibition at 10 µM [1]: 8%
inhibition at 25 µM [1]: 43%

CC(C)(C)c1ccc(S(=O)(=O)Nc2ccc3c(c2)c(-c2ccccc2)c(C(=O)O)n3Cc2ccccc2)cc1 [Example 3, 1-benzyl-5-{[(4-tert-butylphenyl)sulfonyl]amino}-3-phenyl-1H-indole-2-carboxylic acid]
IC50 (human PAI-1): 28.7 µM
inhibition at 10 µM [1]: 41%
inhibition at 25 µM [1]: 82%

O=C(O)c1c(-c2ccccc2)c2cc(NS(=O)(=O)c3ccc(-c4ccccc4)cc3)ccc2n1Cc1ccccc1 [Example 4, 1-benzyl-5-[(1,1′-biphenyl-4-ylsulfonyl)amino]-3-phenyl-1H-indole-2-carboxylic acid]
IC50 (human PAI-1): 23 µM
inhibition at 10 µM [1]: 44%
inhibition at 25 µM [1]: 61%

Cn1c(C(=O)O)c(-c2ccccc2)c2cc(NS(=O)(=O)c3ccc(OC(F)(F)F)cc3)ccc21 [Example 5, 1-methyl-3-phenyl-5-({[4-(trifluoromethoxy)phenyl]sulfonyl}amino)-1H-indole-2-carboxylic acid]
inhibition at 25 µM [1]: 19%

Cn1c(C(=O)O)c(-c2ccccc2)c2cc(NS(=O)(=O)c3ccc(C(C)(C)C)cc3)ccc21 [Example 6, 5-{[(4-tert-butylphenyl)sulfonyl]amino}-1-methyl-3-phenyl-1H-indole-2-carboxylic acid]
inhibition at 25 µM [1]: 46%

Cn1c(C(=O)O)c(-c2ccccc2)c2cc(NS(=O)(=O)c3ccc(-c4ccccc4)cc3)ccc21 [Example 7, 5-[(1,1′-biphenyl-4-ylsulfonyl)amino]-1-methyl-3-phenyl-1H-indole-2-carboxylic acid]
inhibition at 10 µM [1]: 11%
inhibition at 25 µM [1]: 68%

CC(C)C[C@H](NC(=O)c1c(-c2ccccc2)c2cc(NS(=O)(=O)c3ccc(OC(F)(F)F)cc3)ccc2n1C)C(=O)O [Example 8, N-{[1-methyl-3-phenyl-5-({[4-(trifluoromethoxy)phenyl]sulfonyl}amino)-1H-indol-2-yl]carbonyl}-L-leucine]
inhibition at 10 µM [1]: 18%
inhibition at 25 µM [1]: 73%

Cn1c(C(=O)N[C@@H](Cc2ccccc2)C(=O)O)c(-c2ccccc2)c2cc(NS(=O)(=O)c3ccc(-c4ccccc4)cc3)ccc21 [Example 9, N-({5-[(1,1′-biphenyl-4-ylsulfonyl)amino]-1-methyl-3-phenyl-1H-indol-2-yl}carbonyl)-L-phenylalanine]
inhibition at 10 µM [1]: 8%
inhibition at 25 µM [1]: 73%

CC(C)C[C@H](NC(=O)c1c(-c2ccccc2)c2cc(NS(=O)(=O)c3ccc(-c4ccccc4)cc3)ccc2n1C)C(=O)O [Example 10, N-({5-[(1,1′-biphenyl-4-ylsulfonyl)amino]-1-methyl-3-phenyl-1H-indol-2-yl}carbonyl)-L-leucine]
inhibition at 10 µM [1]: 15%
inhibition at 25 µM [1]: 74%

Cn1c(C(=O)N[C@@H](Cc2ccccc2)C(=O)O)c(-c2ccccc2)c2cc(NS(=O)(=O)c3ccc(C(C)(C)C)cc3)ccc21 [Example 11, N-[(5-{[(4-tert-butylphenyl)sulfonyl]amino}-1-methyl-3-phenyl-1H-indol-2-yl)carbonyl]-L-phenylalanine]
inhibition at 10 µM [1]: 15%
inhibition at 25 µM [1]: 77%

CC(C)C[C@H](NC(=O)c1c(-c2ccccc2)c2cc(NS(=O)(=O)c3ccc(C(C)(C)C)cc3)ccc2n1C)C(=O)O [Example 12, N-[(5-{[(4-tert-butylphenyl)sulfonyl]amino}-1-methyl-3-phenyl-1H-indol-2-yl)carbonyl]-L-leucine]
inhibition at 10 µM [1]: 14%
inhibition at 25 µM [1]: 64%

CS(=O)(=O)Nc1ccc2c(c1)c(-c1ccccc1)c(C(=O)O)n2Cc1ccc(-c2ccccc2)cc1 [Example 13, 1-(1,1′-biphenyl-4-ylmethyl)-5-[(methylsulfonyl)amino]-3-phenyl-1H-indole-2-carboxylic acid]
inhibition at 10 µM [1]: 24%
inhibition at 25 µM [1]: 62%

O=C(O)c1c(-c2ccccc2)c2cc(NS(=O)(=O)c3ccccc3)ccc2n1Cc1ccc(-c2ccccc2)cc1 [Example 14, 1-(1,1′-biphenyl-4-ylmethyl)-3-phenyl-5-[(phenylsulfonyl)amino]-1H-indole-2-carboxylic acid]
IC50 (human PAI-1): 28 µM
inhibition at 10 µM [1]: 77%
inhibition at 25 µM [1]: 87%

CS(=O)(=O)Nc1ccc2c(c1)c(-c1ccccc1)c(C(=O)O)n2C(c1ccccc1)c1ccccc1 [Example 15, 1-benzhydryl-5-[(methylsulfonyl)amino]-3-phenyl-1H-indole-2-carboxylic acid]
inhibition at 10 µM [1]: 10%
inhibition at 25 µM [1]: 36%

O=C(O)c1c(-c2ccccc2)c2cc(NS(=O)(=O)c3ccccc3)ccc2n1C(c1ccccc1)c1ccccc1 [Example 16, 1-benzhydryl-3-phenyl-5-[(phenylsulfonyl)amino]-1H-indole-2-carboxylic acid]
inhibition at 10 µM [1]: 68%
inhibition at 25 µM [1]: 89%

CC(C)(C)c1ccc(-c2c(C(=O)O)n(Cc3ccccc3)c3ccc(NS(=O)(=O)c4ccc(OC(F)(F)F)cc4)cc23)cc1 [Example 17, 1-Benzyl-3-(4-tert-butylphenyl)-5-({[4-(trifluoromethoxy)phenyl]sulfonyl}amino)-1H-indole-2-carboxylic acid]
inhibition at 10 µM [1]: 43%
inhibition at 25 µM [1]: 84%

O=C(O)c1c(-c2ccc3[nH]ccc3c2)c2cc(NS(=O)(=O)c3ccccc3)ccc2n1Cc1ccccc1 [Example 18, 1-benzyl-5-[(phenylsulfonyl)amino]-1H,1′H-3,5′-biindole-2-carboxylic acid]
inhibition at 10 µM [1]: 19%
inhibition at 25 µM [1]: 55%

O=C(O)c1[nH]c2ccc(NS(=O)(=O)c3ccc(OC(F)(F)F)cc3)cc2c1-c1ccccc1 [Example 19, 3-phenyl-5-({[4-(trifluoromethoxy)phenyl]sulfonyl}amino)-1H-indole-2-carboxylic acid]
inhibition at 10 µM [1]: 12%
inhibition at 25 µM [1]: 50%

CC(C)(C)c1ccc(S(=O)(=O)Nc2ccc3[nH]c(C(=O)O)c(-c4ccccc4)c3c2)cc1 [Example 20, 5-{[(4-tert-butylphenyl)sulfonyl]amino}-3-phenyl-1H-indole-2-carboxylic acid]
IC50 (human PAI-1): 28.4 µM
inhibition at 10 µM [1]: 20%
inhibition at 25 µM [1]: 81%

O=C(O)c1[nH]c2ccc(NS(=O)(=O)c3ccc(-c4ccccc4)cc3)cc2c1-c1ccccc1 [Example 21, 5-[(1,1′-biphenyl-4-ylsulfonyl)amino]-3-phenyl-1H-indole-2-carboxylic acid]
IC50 (human PAI-1): 19.5 µM
inhibition at 10 µM [1]: 29%
inhibition at 25 µM [1]: 86%
